Tests used:
Type in all cases: functional, cell-based
UACC-893 = assay: cells; settings: Homo sapiens
Description: SANGER: Inhibition of human UACC-893 cell growth in a cell viability assay.

5637 = assay: cells; settings: Homo sapiens
Description: SANGER: Inhibition of human 5637 cell growth in a cell viability assay.

SCC-4 = assay: cells; settings: Homo sapiens
Description: SANGER: Inhibition of human SCC-4 cell growth in a cell viability assay.

DoTc2-4510 = assay: cells; settings: Homo sapiens
SN12C = assay: cells; settings: Homo sapiens
Description: SANGER: Inhibition of human SN12C cell growth in a cell viability assay.

WSU-NHL = assay: cells; settings: Homo sapiens
Description: SANGER: Inhibition of human WSU-NHL cell growth in a cell viability assay.

NY = assay: cells; settings: Homo sapiens
Description: SANGER: Inhibition of human NY cell growth in a cell viability assay.

UACC-812 = assay: cells; settings: Homo sapiens
Description: SANGER: Inhibition of human UACC-812 cell growth in a cell viability assay.

G-401 = assay: cells; settings: Homo sapiens
Description: SANGER: Inhibition of human G-401 cell growth in a cell viability assay.

D-392MG = assay: cells; settings: Homo sapiens
Capan-2 = assay: cells; settings: Homo sapiens
Description: SANGER: Inhibition of human Capan-2 cell growth in a cell viability assay.

NCI-H630 = assay: cells; settings: Homo sapiens
Description: SANGER: Inhibition of human NCI-H630 cell growth in a cell viability assay.

SK-N-AS = assay: cells; settings: Homo sapiens
Description: SANGER: Inhibition of human SK-N-AS cell growth in a cell viability assay.

CAPAN-1 = assay: cells; settings: Homo sapiens
Description: SANGER: Inhibition of human CAPAN-1 cell growth in a cell viability assay.

NCI-H358 = assay: cells; settings: Homo sapiens
Description: SANGER: Inhibition of human NCI-H358 cell growth in a cell viability assay.

SF-295 = assay: cells; settings: Homo sapiens
Description: SANGER: Inhibition of human SF295 cell growth in a cell viability assay.

COLO-680N = assay: cells; settings: Homo sapiens
Description: SANGER: Inhibition of human COLO-680N cell growth in a cell viability assay.

SiHa = assay: cells; settings: Homo sapiens
Description: SANGER: Inhibition of human SiHa cell growth in a cell viability assay.

NCI-H2170 = assay: cells; settings: Homo sapiens
Description: SANGER: Inhibition of human NCI-H2170 cell growth in a cell viability assay.

NCI-H596 = assay: cells; settings: Homo sapiens
Description: SANGER: Inhibition of human NCI-H596 cell growth in a cell viability assay.

D-247MG = assay: cells; settings: Homo sapiens
Description: SANGER: Inhibition of human D-247MG cell growth in a cell viability assay.

SCC-9 = assay: cells; settings: Homo sapiens
Description: SANGER: Inhibition of human SCC-9 cell growth in a cell viability assay.

BEN = assay: cells; settings: Homo sapiens
Description: SANGER: Inhibition of human BEN cell growth in a cell viability assay.

FaDu = assay: cells; settings: Homo sapiens
Description: SANGER: Inhibition of human FADU cell growth in a cell viability assay.

HSC-2 = assay: cells; settings: Homo sapiens
Description: SANGER: Inhibition of human HSC-2 cell growth in a cell viability assay.

SW1990 = assay: cells; settings: Homo sapiens
Description: SANGER: Inhibition of human SW1990 cell growth in a cell viability assay.

SW1088 = assay: cells; settings: Homo sapiens
Description: SANGER: Inhibition of human SW1088 cell growth in a cell viability assay.

MFE-280 = assay: cells; settings: Homo sapiens
Description: SANGER: Inhibition of human MFE-280 cell growth in a cell viability assay.

HO-1-N-1 = assay: cells; settings: Homo sapiens
Description: SANGER: Inhibition of human HO-1-N-1 cell growth in a cell viability assay.

HCT-15 = assay: cells; settings: Homo sapiens
Description: SANGER: Inhibition of human HCT-15 cell growth in a cell viability assay.

8305C = assay: cells; settings: Homo sapiens
Description: SANGER: Inhibition of human 8305C cell growth in a cell viability assay.

SW13 = assay: cells; settings: Homo sapiens
Description: SANGER: Inhibition of human SW13 cell growth in a cell viability assay.

ACHN = assay: cells; settings: Homo sapiens
Description: SANGER: Inhibition of human ACHN cell growth in a cell viability assay.

NCI-H1793 = assay: cells; settings: Homo sapiens
Description: SANGER: Inhibition of human NCI-H1793 cell growth in a cell viability assay.

23132-87 = assay: cells; settings: Homo sapiens
Description: SANGER: Inhibition of human 23132-87 cell growth in a cell viability assay.

NCI-H719 = assay: cells; settings: Homo sapiens
Description: SANGER: Inhibition of human NCI-H719 cell growth in a cell viability assay.

MDA-MB-361 = assay: cells; settings: Homo sapiens
U-118-MG = assay: cells; settings: Homo sapiens
Description: SANGER: Inhibition of human U-118-MG cell growth in a cell viability assay.

A2058 = assay: cells; settings: Homo sapiens
Description: SANGER: Inhibition of human A2058 cell growth in a cell viability assay.

SK-MEL-30 = assay: cells; settings: Homo sapiens
Description: SANGER: Inhibition of human SK-MEL-30 cell growth in a cell viability assay.

SK-OV-3 = assay: cells; settings: Homo sapiens
Description: SANGER: Inhibition of human SK-OV-3 cell growth in a cell viability assay.

HCC1569 = assay: cells; settings: Homo sapiens
Description: SANGER: Inhibition of human HCC1569 cell growth in a cell viability assay.

HSC-3 = assay: cells; settings: Homo sapiens
Description: SANGER: Inhibition of human HSC-3 cell growth in a cell viability assay.

NCI-H1623 = assay: cells; settings: Homo sapiens
Description: SANGER: Inhibition of human NCI-H1623 cell growth in a cell viability assay.

CaR-1 = assay: cells; settings: Homo sapiens
Description: SANGER: Inhibition of human CaR-1 cell growth in a cell viability assay.

NCI-H28 = assay: cells; settings: Homo sapiens
Description: SANGER: Inhibition of human NCI-H28 cell growth in a cell viability assay.

HT-1376 = assay: cells; settings: Homo sapiens
Description: SANGER: Inhibition of human HT-1376 cell growth in a cell viability assay.

Calu-3 = assay: cells; settings: Homo sapiens
Description: SANGER: Inhibition of human Calu-3 cell growth in a cell viability assay.

SCLC-21H = assay: cells; settings: Homo sapiens
Description: SANGER: Inhibition of human SCLC-21H cell growth in a cell viability assay.

RPMI-6666 = assay: cells; settings: Homo sapiens
Description: SANGER: Inhibition of human RPMI-6666 cell growth in a cell viability assay.

SW948 = assay: cells; settings: Homo sapiens
Description: SANGER: Inhibition of human SW948 cell growth in a cell viability assay.

769-P = assay: cells; settings: Homo sapiens
Description: SANGER: Inhibition of human 769-P cell growth in a cell viability assay.

SR = assay: cells; settings: Homo sapiens
Description: SANGER: Inhibition of human SR cell growth in a cell viability assay.

MDA-MB-415 = assay: cells; settings: Homo sapiens
SW1783 = assay: cells; settings: Homo sapiens
Description: SANGER: Inhibition of human SW1783 cell growth in a cell viability assay.

VMRC-RCZ = assay: cells; settings: Homo sapiens
Description: SANGER: Inhibition of human VMRC-RCZ cell growth in a cell viability assay.

HCC2157 = assay: cells; settings: Homo sapiens
Description: SANGER: Inhibition of human HCC2157 cell growth in a cell viability assay.

BFTC-905 = assay: cells; settings: Homo sapiens
Description: SANGER: Inhibition of human BFTC-905 cell growth in a cell viability assay.

NCI-H1882 = assay: cells; settings: Homo sapiens
Description: SANGER: Inhibition of human NCI-H1882 cell growth in a cell viability assay.

UMC-11 = assay: cells; settings: Homo sapiens
Description: SANGER: Inhibition of human UMC-11 cell growth in a cell viability assay.

BT-20 = assay: cells; settings: Homo sapiens
Description: SANGER: Inhibition of human BT-20 cell growth in a cell viability assay.

IM-9 = assay: SANGER: Inhibition of human IM-9 cell growth in a cell viability assay.
LC4-1 = assay: cells; settings: Homo sapiens
Description: SANGER: Inhibition of human LC4-1 cell growth in a cell viability assay.

NB12 = assay: cells; settings: Homo sapiens
Description: SANGER: Inhibition of human NB12 cell growth in a cell viability assay.

639-V = assay: cells; settings: Homo sapiens
Description: SANGER: Inhibition of human 639-V cell growth in a cell viability assay.

## CC(C)=CC[C@@H](O)C1=CC(=O)c2c(O)ccc(O)c2C1=O [SHIKONIN]
UACC-893
  IC50: > 16000 nM
5637
  IC50: > 16000 nM
SCC-4
  IC50: 441 nM
DoTc2-4510
  IC50: 263 nM
SN12C
  IC50: 1760 nM
WSU-NHL
  IC50: 260 nM
NY
  IC50: 1050 nM
UACC-812
  IC50: 5080 nM
G-401
  IC50: 235 nM
D-392MG
  IC50: 915 nM
Capan-2
  IC50: 1010 nM
NCI-H630
  IC50: 1300 nM
SK-N-AS
  IC50: 1790 nM
CAPAN-1
  IC50: 759 nM
NCI-H358
  IC50: 658 nM
SF-295
  IC50: 664 nM
COLO-680N
  IC50: 590 nM
SiHa
  IC50: > 16000 nM
NCI-H2170
  IC50: 1720 nM
NCI-H596
  IC50: 818 nM
D-247MG
  IC50: 1660 nM
SCC-9
  IC50: 197 nM
BEN
  IC50: 814 nM
FaDu
  IC50: 1770 nM
HSC-2
  IC50: 223 nM
SW1990
  IC50: 1620 nM
SW1088
  IC50: 700 nM
MFE-280
  IC50: 4950 nM
HO-1-N-1
  IC50: 462 nM
HCT-15
  IC50: 268 nM
8305C
  IC50: 305 nM
SW13
  IC50: 1410 nM
ACHN
  IC50: 146 nM
NCI-H1793
  IC50: > 16000 nM
23132-87
  IC50: 2110 nM
NCI-H719
  IC50: 2610 nM
MDA-MB-361
  IC50: 1730 nM
U-118-MG
  IC50: 842 nM
A2058
  IC50: 919 nM
SK-MEL-30
  IC50: 695 nM
SK-OV-3
  IC50: 1560 nM
HCC1569
  IC50: 810 nM
HSC-3
  IC50: 337 nM
NCI-H1623
  IC50: 2730 nM
CaR-1
  IC50: 1310 nM
NCI-H28
  IC50: 1010 nM
HT-1376
  IC50: 915 nM
Calu-3
  IC50: 1110 nM
SCLC-21H
  IC50: 1360 nM
RPMI-6666
  IC50: 587 nM
SW948
  IC50: 11900 nM
769-P
  IC50: 689 nM
SR
  IC50: 141 nM
MDA-MB-415
  IC50: 2280 nM
SW1783
  IC50: 1070 nM
VMRC-RCZ
  IC50: 547 nM
HCC2157
  IC50: 338 nM
BFTC-905
  IC50: 284 nM
NCI-H1882
  IC50: 576 nM
UMC-11
  IC50: > 16000 nM
BT-20
  IC50: 2560 nM
IM-9
  IC50: 3410 nM
LC4-1
  IC50: 360 nM
NB12
  IC50: 666 nM
639-V
  IC50: 265 nM

## C/C=C(/C)C(=O)O[C@H]1C(C)=C2[C@H]([C@@H]1OC(=O)CCCCCCC)[C@@](C)(OC(C)=O)C[C@H](OC(=O)CCC)[C@@]1(O)[C@H]2OC(=O)[C@@]1(C)O [THAPSIGARGIN]
UACC-893
  IC50: 58.7 nM
5637
  IC50: 11.4 nM
SCC-4
  IC50: 10.4 nM
DoTc2-4510
  IC50: 12.4 nM
SN12C
  IC50: 16.6 nM
WSU-NHL
  IC50: 5.54 nM
NY
  IC50: < 2 nM
UACC-812
  IC50: > 512 nM
G-401
  IC50: 25.1 nM
D-392MG
  IC50: > 512 nM
Capan-2
  IC50: < 2 nM
SK-N-AS
  IC50: 48.5 nM
CAPAN-1
  IC50: 13.5 nM
NCI-H358
  IC50: < 2 nM
SF-295
  IC50: < 2 nM
COLO-680N
  IC50: 18 nM
SiHa
  IC50: > 512 nM
NCI-H2170
  IC50: 14.4 nM
NCI-H596
  IC50: 38.9 nM
SCC-9
  IC50: 447 nM
BEN
  IC50: 13.9 nM
FaDu
  IC50: 169 nM
HSC-2
  IC50: 2.99 nM
SW1990
  IC50: < 2 nM
SW1088
  IC50: 324 nM
MFE-280
  IC50: 36.6 nM
HO-1-N-1
  IC50: > 512 nM
HCT-15
  IC50: 155 nM
8305C
  IC50: 2.7 nM
SW13
  IC50: 9.38 nM
ACHN
  IC50: 28.6 nM
NCI-H1793
  IC50: > 512 nM
23132-87
  IC50: 31.4 nM
NCI-H719
  IC50: > 512 nM
MDA-MB-361
  IC50: 4.73 nM
U-118-MG
  IC50: 31.9 nM
A2058
  IC50: 2.69 nM
SK-MEL-30
  IC50: 3.24 nM
SK-OV-3
  IC50: 2.64 nM
HCC1569
  IC50: 17.9 nM
HSC-3
  IC50: 11.3 nM
NCI-H1623
  IC50: > 512 nM
CaR-1
  IC50: 8.62 nM
NCI-H28
  IC50: > 512 nM
HT-1376
  IC50: 2.75 nM
Calu-3
  IC50: > 512 nM
SCLC-21H
  IC50: 1.69 nM
RPMI-6666
  IC50: 42.6 nM
SW948
  IC50: > 512 nM
769-P
  IC50: 32.3 nM
SR
  IC50: > 512 nM
MDA-MB-415
  IC50: > 512 nM
SW1783
  IC50: 9.24 nM
VMRC-RCZ
  IC50: 11.2 nM
HCC2157
  IC50: 3.49 nM
BFTC-905
  IC50: 0.662 nM
NCI-H1882
  IC50: > 512 nM
UMC-11
  IC50: 9.15 nM
BT-20
  IC50: > 512 nM
IM-9
  IC50: > 512 nM
LC4-1
  IC50: 42.3 nM
NB12
  IC50: 13.2 nM
639-V
  IC50: 0.512 nM
